Assays:
BV2 microglial cells [1] = test: LPS-induced IL-1β release by BV2 microglia cell cultures (ELISA); assay type: cell-based, murine
Protocol: (§1) The BV2 murine microglial cell line is used in these studies.
(§2) The BV2 cells are cultured at 37° C. in a humidified atmosphere with 5% CO2 in high D-glucose (4.5 g/L) Dulbecco’s modified Eagle’s medium (Sigma, Rehovot, Israel) supplemented with 5% heat-inactivated fetal bovine serum, streptomycin (100 µg/ml), and penicillin (100 units/ml) and sodium pyruvate (1 mM; all from Biological Industries Ltd., Kibbutz Beit Haemek, Israel). 24 hours before experiments with LPS stimulation, the BV2 cells are split into 24 well plates, 2×10^5 cells per well, covered with 1 ml of growth medium and allowed to attach overnight. 24 hr before experiments with α-synuclein, the BV2 cells are split into 96-well plates, 50,000 (5×10^4) cells per well, covered with 200 µl of growth medium and allowed to attach overnight. Cultures of BV2 microglia cells are first treated by an individual cannabinoid, or terpene or flavonoid selected from: Cannabidiol (CBD), Δ-9-tetrahydrocannabinol (THC), Δ-8-tetrahydrocannabinol (THC), cannabigerol (CBG), cannabichromene (CBC), cannabigerolic acid (CBGA), Cannabidiolic acid (CBDA), THC acid (THCA), cannabichromenic Acid (CBCA), Cannabidivarin (CBDV), tetrahydrocannabivarin (THCV), Cannabichromevarin (CBCV), Cannabichromerocin ([…]), Cannabivarin (CBV), Cannabicitran (CBT), Cannabinol (CBN), Cannabicyclol (CBL), Cannabigerorcin (CBGO), Cannabinodiol (CBND), β-caryophyllene, β-elemene, β-myrcene, linalool, α-pinene, β-pinene, eucalyptol, alpha-terpineol, valencene, geraniol (lemonol), bisabolol, nerolidol, ocimene, terpinolene, humulene, α-terpinene, camphene, fenchol, α-phellandrene, Δ3-carene, γ-cardinene, sabinene, limonene, β-amyrin, cycloartenol, cannflavin A, cannflavin B, kaempferol, quercetin, luteolin, apigenin, canniprene, orientin, β-sitosterol, vitexin, isovitexin, and chrysin. Additional cultures of BV2 microglia cells are treated by an individual cannabinoid, with at least one additional cannabinoid, and/or terpene, and/or flavonoid, and/or celecoxib. Additional cultures are exposed to the vehicle of these compounds (cremophor, ethanol and PBS, 1:1:18 (v/v/v)) (FIG. 2A). In some studies, cultures of BV2 microglia cells are treated by a specific whole plant cannabis extract, with or without supplementation with cannabinoid(s), and/or terpene(s) and/or flavonoid(s), and/or celecoxib (FIG. 2B).
(§3) For each individual cannabinoid mentioned above, 3-4 concentrations are used, ranging from 0.1 to 10 µM. For ultra-low dose Δ9-THC the concentration used is 0.01 µM. For each individual terpene or flavonoid mentioned above, 3-4 concentrations are used, ranging from 1 to 50 µM. For celecoxib, 3-4 concentrations are used, ranging from 0.1 to 10 µM. Two hours following the treatment, the cultures are exposed to one of the following microglia stimulators: LPS (Sigma L2630; Escherichia coli serotype O111:B4) is dissolved in D-PBS (Sigma, D8537) to a pre-stock concentration of 1 mg/ml, aliquoted and stored at -80° C. Stock solution of LPS at 10 ug/ml is prepared using sterile D-PBS, followed by filtering via 0.22 µm filter membrane, aliquoting and storing in -20° C. LPS is applied into the cell medium at a final concentration of 100 ng/ml. Poly I:C (Sigma, P1530) was first dissolved in sterile, molecular grade water to the concentration of 10 mg/ml (following the manufacturer’s instructions). This stock solution was further diluted to the concentration of 1 mg/ml in sterile PBS, and the aliquots stored in -20 °C.

BV2 microglial cells [2] = test: LPS-induced TNFα secretion by BV2 microglia cell cultures (ELISA); assay type: cell-based, murine; conditions: for levels of TNFα compared to cultures treated with vehicle and LPS: 24-hours incubation, CBD 10 but not 1 µM, linalool 100 but not 25 µM, kaempferol dose-dependently at 10, 25 and 50 µM, quercetin 10 and 25 but not 5 µM; for IC50: Mus musculus, BV-2, read-out: IC50 for inhibiting LPS-induced TNFα release; for effect on lipopolysaccharide-induced TNFα secretion: THC 0.1, 0.5 and 1 µM, CBDA 0.2, 1 and 2 µM, CBC 0.1, 1 and 2 µM, α-pinene, β-pinene, limonene 25 or 100 µM
Protocol: as §1, §2
as §3, with “For each individual terpene or flavonoid mentioned above, 3-4 concentrations are used, ranging from 1 to 50 µM.” left out

LPS-injected mice = test: Body weight change and food consumption in the LPS-induced model of depression; assay type: in vivo; conditions: Example 9; male C57BL/6, i.p. 1 h before LPS 330 µg/kg; mg/kg: CBD 30; CBD 30 plus THC 10; cannabinol 10; CBD 30 plus BCP 50
Text: Animals were housed 2-3/cage, kept in an air-conditioned room (23+°C) and given ad libitum access to food and water. The mice were kept in a reversed light/dark cycle, with lights off from 7 a.m. to 7 p.m. All experiments were approved by the Hebrew University of Jerusalem Ethics Committee on Animal Care and Use. In preparation for the Sucrose Preference Test, mice were habituated 2-3 times to sucrose drinking, by exposing them overnight to two graduated tubes, one containing water and the other containing sucrose solution (1%, w/v). Water and sucrose consumption were measured, and sucrose preference was computed by dividing the amount of sucrose consumed by drinking (ml sucrose) by the total drinking volume (ml of sucrose + water). One day later, the weight of the mice and the food in their cages was weighed for later analysis of food consumption and body weight changes. Groups of mice were injected intraperitoneally (i.p.) with either vehicle (cremophor, ethanol and PBS, 1:1:18 (v/v/v)) or a cannabinoid-based formulation (by itself or with another cannabinoid, or a terpene or a flavonoid). One hour later, each of these groups was injected with LPS (330 µg/kg). All injections were administered at a dose of 10 ml/kg. Four hours following the LPS injection, mice were tested in the Open-Field Test. In this test, the measured locomotor activity reflects not only motor capacity, but particularly the innate motivation for spatial exploration (which increases the distance travelled) and the anxiety level (which reduces the distance travelled, in general, and particularly the distance and time spent in the center of the open field). Each subject was placed near one of the walls of a white 50 X 50 cm^2 arena with 40 cm high walls. The distance travelled (cm), the velocity of the movement (cm/second), the time spent (seconds), distance travelled (cm) in the center area of the arena, as well as the number of entries from the perimeter area into the center of the arena were automatically measured over a 4-minute period, using EthoVision XT video tracking system and software (Noldus, The Netherlands). Twenty-four hours after the LPS injection, mice were tested in the Social Exploration Test. In this test, the subject was placed in an observation cage containing a small metal wire mesh cage with a conspecific mouse inside it. Social exploration, defined as the time of near contact between the nose of the subject and the juvenile in the small cage was recorded for 4 min, using computerized in-house software. Sucrose preference was assessed, as described above, between 8 to 27 hr post LPS injection. Body weight and weight of the food were measured two hours before the LPS injection, and again after 24 hours, and the change in body weight and food consumption were calculated.
This particular study was conducted in several experimental cohorts, and not all compounds and all measures were studied in all cohort. However, each cohort included a vehicle-treated group; therefore, the scores in each behavioral test were converted to % of mean vehicle-treated group in every individual cohort/experiment. Statistical comparisons were computed using SPSS software and consisted of one-way analyses of variance (ANOVA), followed by post-hoc comparisons with the Student-Newman-Keuls method.

BV2 microglial cells [3] = test: LPS-induced IL-6 release by BV2 microglia cell cultures (ELISA); assay type: cell-based, murine
Protocol: as §1, §2, §3

BV2 microglial cells [4] = test: α-synuclein-induced TNFα secretion by BV2 microglia cell cultures; assay type: cell-based, murine; conditions: Mus musculus
Protocol: as §2
as §3, with “°C. […] To induce oligomerization, α-Synuclein solution is placed for 24 hours on a shaker with agitation of 80 rpm and at 37° C.” for “°C.”

## O=c1c(O)c(-c2ccc(O)c(O)c2)oc2cc(O)cc(O)c12 [quercetin]
BV2 microglial cells [1]; Example 5, alone at 5 µM, no effect at 1 and 2.5 µM
  IL-1β release vs Veh plus LPS: significantly decreased IL-1β levels
BV2 microglial cells [1]; Mus musculus, BV-2, Example 5 (FIG. 6D), by itself, read-out: IC50 for inhibiting LPS-induced IL-1β release
  IC50: 2.6 µM
BV2 microglial cells [2]
  levels of TNFα compared to cultures treated with vehicle and LPS: reduced
  IC50: 6.2 µM
BV2 microglial cells [2]; Example 5, by themselves, CBD 1 and 2.5 µM, quercetin 1, 2.5 and 5 µM
  release of TNFα vs LPS-activated cultures treated with vehicle: did not affect

## CCCCCc1cc(O)c2c(c1)OC(C)(C)[C@@H]1CCC(C)=C[C@@H]21 [THC, Δ-9 tetrahydrocannabinol]
BV2 microglial cells [2]
  effect on lipopolysaccharide-induced TNFα secretion: no effect

## C=CC(C)(O)CCC=C(C)C (stereo not shown) [linalool]
BV2 microglial cells [2]
  levels of TNFα compared to cultures treated with vehicle and LPS: reduced

## C=C(C)[C@H]1CC=C(C)CC1 [limonene]
BV2 microglial cells [2]
  effect on lipopolysaccharide-induced TNFα secretion: no effects

## CCCCCc1cc(O)c2c(c1)OC(C)(C)c1ccc(C)cc1-2 [cannabinol]
LPS-injected mice
  food consumption over 24 hr vs vehicle-treated group: consumed significantly less food

## CCCCCc1cc(O)c2c(c1)OC(C)(CCC=C(C)C)C=C2 (stereo not shown) [CBC, cannabichromene]
BV2 microglial cells [2]
  effect on lipopolysaccharide-induced TNFα secretion: no effect

## CC1=CCC2CC1C2(C)C (stereo not drawn) [α-pinene]
BV2 microglial cells [2]
  effect on lipopolysaccharide-induced TNFα secretion: no effects

## C=C(C)[C@@H]1CCC(C)=C[C@H]1c1c(O)cc(CCC)cc1O [CBDV, cannabidivarin]
BV2 microglial cells [3]; Example 6, CBD or CBDV given by themselves
  IL-6 secretion vs Veh plus LPS: no significant effect
BV2 microglial cells [3]; Example 6, IC50 comparison
  times less potent than CBD in inhibiting IL-6 release: about 2 times
BV2 microglial cells [3]; Mus musculus, BV-2, Example 6 (FIG. 7D), by itself, read-out: IC50 for inhibiting LPS-induced IL-6 release
  IC50: 9.6 µM
BV2 microglial cells [2]; Example 6, IC50 comparison
  times less potent than CBD in inhibiting TNFα release: ~6 times
BV2 microglial cells [2]; Example 6, by itself, CBD 1, 2.5 and 5 µM, CBDV 1, 2.5, 5 and 10 µM
  release of TNFα vs LPS-activated cultures treated with vehicle: no concentration of either CBD or CBDV by itself affected release of TNFα
BV2 microglial cells [2]
  IC50: 27.9 µM

## C=C1CCC2CC1C2(C)C (stereo not drawn) [β-pinene]
BV2 microglial cells [2]
  effect on lipopolysaccharide-induced TNFα secretion: no effects

## Cc1ccc(-c2cc(C(F)(F)F)nn2-c2ccc(S(N)(=O)=O)cc2)cc1 [celecoxib]
BV2 microglial cells [4]; BV-2, Example 8 (FIG. 9B), by itself, read-out: IC50, α-synuclein-induced TNFα release
  IC50: 4.2 µM
BV2 microglial cells [4]; BV-2, addition of 1 µM CBD, read-out: celecoxib IC50, α-synuclein-induced TNFα release
  IC50: 2 µM
BV2 microglial cells [4]; BV-2, addition of 2.5 µM CBD, read-out: celecoxib IC50, α-synuclein-induced TNFα release
  IC50: 1.7 µM
BV2 microglial cells [4]; BV-2, addition of 5 µM CBD, read-out: celecoxib IC50, α-synuclein-induced TNFα release
  IC50: 1.1 µM
